Source: patent EP0791071B1, “ASSAY FOR PROLINE IMINOPEPTIDASE AND OTHER HYDROLYTIC ACTIVITIES” (LITMUS CONCEPTS, INC., priority 1994, dated 1996)
Where two headings read alike, the source gives them in different places. Non-standard residues stand in square brackets, D forms with d. Residues, ends and D or L forms follow the SMILES beside them. *: point of attachment. Sta = CC(C)C[C@H](N)[C@@H](O)CC(=O)O; AMC = Cc1cc(=O)oc2cc(N*)ccc12; Isovaleryl = CC(C)CC(=O)*; Boc = CC(C)(C)OC(=O)*

How the values were obtained:
[1] = system: Mobiluncus curtisii ATCC strain 35241 cell hydrolysis of the conjugate, L-prolyl-beta-naphthylamide; type: biochemical; set-up: key: -: no red color formation; +/-: possible red color formation; +: clearly visible red color formation; ++: extremely intense red color formation; conditions: PRO.NAM conjugate, 2 minutes incubation, read after 3 minutes, water control 2
Method: 30 µL cell suspension, 10 µL conjugate, PRO.NAM, and 10 µL salt solution or water were added to test tubes, and the suspension incubated for 2 minutes at room temperature. 20 µL of the suspension was removed from the incubation tubes and added to Fast Garnet GBC chromogenic indicator laminae. After 3 minutes, the Fast Garnet GBC indicator laminae were examined for a red color.

[2] = system: Mobiluncus curtisii ATCC strain 35241 hydrolysis of the conjugate, L-arginyl-beta-naphthylamide (ARG.NAM); type: biochemical; conditions: pH 8.0 Tris, 1 hour at room temperature, water control 2
Method: (§1) 20 µL cell suspension, 50 µL water, 10 µL salt solution, 10 µL buffer, and 5 µL conjugate, ARG.NAM, were added to test tubes, and the suspension incubated for 1 hour at room temperature. 100 µL of the PDMAC chromogen reagent was added, and red color formation after 5 minutes was noted.

[3] = system: Mobiluncus curtisii ATCC Strain 35241; assay: Hydrolysis of conjugates by microbial cells, PDMAC chromogen in solution (Experiment IV); type: biochemical; conditions: preparation and pH not given
Method: 50 µL distilled water, 25 µL buffer, and 25 µL microbial suspension were mixed. 5 µL conjugate was added, and the mixture allowed to incubate for 10 minutes at room temperature. 100 µL PDMAC was added to each incubation, and the color score noted.

[4] = system: proline iminopeptidase activity in Mobiluncus curtsii ATCC strain 35241 cells; assay: Diazonium dye indicator laminae in test devices with PRO.NAM lamina: color with Mobiluncus curtisii suspension (Experiment III); type: biochemical, Mobiluncus curtisii ATCC strain 35241; conditions: dye indicator lamina and PRO.NAM lamina in test device; about 40 microliters cell suspension; 10 minutes at room temperature
Method: Chromogenic indicator laminae of Fast Garnet GBC, 15 mg; Fast Black K, 57 mg; Fast Dark Blue, Fast Bordeaux, Fast Violet, and Fast Red B, 21 mg prepared as described in P[…] and proline iminopeptidase-hydrolyzable conjugate, L-prolyl-beta-naphthylamide, (13 mg/ml) prepared as described in P[…] were manually assembled into test devices (P[…]). • 1. Tests of device performance with the reporter group, beta-naphthylamine. Approximately 40 microliters of 500 micromolar beta-naphthylamine solution was added to the manually assembled kits. After 10 minutes, color formation was noted. • 2. Test kit performance with proline iminopeptidase activity in Mobiluncus curtsii ATCC strain 35241 cells.
Approximately 40 microliters of the Mobiluncus curtisii ATCC strain 35241 suspension were added to each test kit. After 10 minutes at room temperature, the appearance of color was determined.

[5] = system: Mobiluncus curtisii ATCC strain 35241 hydrolysis of L-prolyl-beta-naphthylamide (proline iminopeptidase activity); assay: Enzyme inhibitors on hydrolysis of L-prolyl-beta-naphthylamide, PDMAC chromogen (Experiment VIII); type: biochemical; conditions: PRO.NAM conjugate, 1.5 hours at room temperature, water control 2
Method: 150 µL cell suspension, 10 µL conjugate, (PRO.NAM), 10 µL inhibitor, and 30 µL buffer were added to test tubes, and the suspension incubated for 1.5 hours at room temperature. 80 µL of the suspension was removed from the incubation tubes and added to 80 µL of the chromogen solution in a second set of tubes and the color formation noted.

[6] = system: Mobiluncus curtisii ATCC strain 35241 cell hydrolysis of Z-L-arg.L-arg.AFC; assay: Enzyme inhibitors on cell hydrolysis of Z-ARG.ARG.AFC, PDMAC chromogen (Experiment X); type: biochemical; set-up: key: 0: no red color formation; 0.25: faintest red color detectable visually; 0.5: distinct red color; red color between 1.0 and 2.0 in intensity; 2.0: darkest red color possible in test system; conditions: Z-ARG.ARG.AFC as the conjugate, 1.5 hours at room temperature, water control 2
Method: (§2) 50 µL cell suspension, 5 µL conjugate, 10 µL inhibitor, and 35 µL buffer were added to test tubes, and the suspension incubated for 1.5 hours at room temperature. 90 µL of the incubated suspension was added to 90 µL of the chromogen solution and the color formation noted.

[7] = system: Mobiluncus curtisii ATCC strain 35241 cell hydrolysis of t-boc-L-val.L-leu.L-lys.7-amino-4-methyl coumarin; assay: Enzyme inhibitors on cell hydrolysis of t-boc.VAL.LEU.LYS.7-AMC, PDMAC chromogen (Experiment X); type: biochemical; set-up: key to TEST COLOR: -: no red color formation; +/-: possible red color formation; +: clearly visible red color formation; ++: extremely intense red color formation; conditions: for TEST COLOR: t-boc.VAL.LEU.LYS.7-AMC as the conjugate, 1.5 hours at room temperature, no inhibitor 2
Method: as §2

[8] = system: Mobiluncus curtisii ATCC strain 35241 hydrolysis of the conjugate, L-arginyl-beta-naphthylamide (ARG.NAM); type: biochemical; set-up: key: -: no red color formation; +/-: possible red color formation; +: clearly visible red color formation; ++: extremely intense red color formation; conditions: metal salt 5 mM, pH 8.0 Tris, 1 hour at room temperature, water control 2
Method: as §1

[9] = system: Mobiluncus curtisii ATCC strain 35241 hydrolysis of the conjugate, L-prolyl-beta-naphthylamide; type: biochemical; set-up: key: 0: no red color formation; 0.25: faintest red color detectable visually; 0.5: distinct red color; red color between 1.0 and 2.0 in intensity; 2.0: darkest red color possible in test system; conditions: 10 µL of 100 mM metal salt, PRO.NAM conjugate
Method: (§3) 20 µL cell suspension, 40 µL water, 10 µL salt solution, and 10 µL conjugate solutions (PRO.NAM or ARG.NAM) were added to test tubes, and mixed thoroughly. Immediately thereafter, 20 µL aliquots were removed from each tube, and added directly to Fast Garnet GBC chromogenic indicator laminae. After 5 minutes at room temperature, the Fast Garnet GBC sheets were examined for the formation of a red color.

[10] = system: Mobiluncus curtisii ATCC strain 35241 hydrolysis of the conjugate, L-arginyl-beta-naphthylamide; assay: Manganese and zinc chlorides on hydrolysis of ARG.NAM at high and low pH, Fast Garnet GBC laminae (Experiment XIII); type: biochemical; conditions: 10 µL of 100 mM metal salt
Method: as §3

[11] = system: Mobiluncus curtisii ATCC strain 35241 proline iminopeptidase activity; assay: Inhibition of proline iminopeptidase activity by detergents, PRO.NAM conjugate, PDMAC chromogen (Experiment VII); type: biochemical
Method: To one set of four test tubes were added 20 µL cell suspension, 5 µL conjugate, and 65 µL distilled water. After 10 minutes incubation at room temperature, 10 µL detergent and 90 µL chromogen solution was added and the color formation noted. To a second set of four test tubes were added 20 µL cell suspension, 5 µL conjugate, and 65 µL detergent solution. After 10 minutes incubation of these components at room temperature, 10 µL water and 90 µL chromogen solution was added and the color formation noted.

[12] = system: Mobiluncus curtisii ATCC strain 35241 hydrolysis of the conjugate, L-arginyl-beta-naphthylamide (ARG.NAM); type: biochemical; set-up: key: 0: no red color formation; 0.25: faintest red color detectable visually; 0.5: distinct red color; red color between 1.0 and 2.0 in intensity; 2.0: darkest red color possible in test system; conditions: metal salt 5 mM, pH 8.0 Tris, 1 hour at room temperature, water control 2
Method: as §1

[Ca+2].[Cl-].[Cl-] [CaCl2]
TEST COLOR ([1]; metal salt 20 mM): 2 | TEST COLOR ([2]; metal salt 5 mM): 2

Cc1cc(=O)oc2cc(NC(=O)[C@H](CCCCN)NC(=O)[C@H](CC(C)C)NC(=O)[C@@H](NC(=O)OC(C)(C)C)C(C)C)ccc12 [T-boc.VAL. LEU.LYS.AMC, Tert-butyloxycarbonyl-L-valyl-L-leucyl.L-lysyl-7-amino-4-methyl coumarin] (Boc-Val-Leu-Lys-{AMC})
M. CURTISII PDMAC COLOR (PREP., pH) [3]: 2

Cc1ccccc1N=Nc1ccc([N+]#N)c(C)c1 [Fast Garnet GBC]
color formation with Mobiluncus Curtisii [4]: red

CC(C)CC(=O)N[C@H](C(=O)N[C@H](C(=O)N[C@@H](CC(C)C)[C@@H](O)CC(=O)N[C@@H](C)C(=O)N[C@@H](CC(C)C)[C@@H](O)CC(=O)O)C(C)C)C(C)C [pepstatin] (Isovaleryl-VV[Sta]A[Sta]-OH)
TEST COLOR ([5]; inhibitor 0.5 mM): 2 | TEST COLOR ([6]; CONCENTRATION (Mm) 0.5): 2 | TEST COLOR ([7]; CONCENTRATION (Mm) 0.5): 2

cupric chloride [CuCl2]
TEST COLOR ([1]; metal salt 5 mM): 0 | TEST COLOR ([2]; metal salt 1 mM): 1 | TEST COLOR [8]: 0

Cc1ccc(S(=O)(=O)N[C@@H](CCCCN)C(=O)CCl)cc1 [TLCK, N-tosyl-L-lysine-chloromethyl ketone]
TEST COLOR ([6]; CONCENTRATION (Mm) 0.5): 0.5 | TEST COLOR ([7]; CONCENTRATION (Mm) 0.5): 0

Cc1ccc(S(=O)(=O)N[C@@H](Cc2ccccc2)C(=O)CCl)cc1 [TPCK, N-tosyl-L-phenylalanine chloromethyl ketone]
TEST COLOR ([5]; inhibitor 0.5 mM): 2 | TEST COLOR ([6]; CONCENTRATION (Mm) 0.5): 0.5 | TEST COLOR ([7]; CONCENTRATION (Mm) 0.5): 0

[Cl][Mn][Cl] [MnCl2, manganese chloride]
TEST COLOR ([1]; metal salt 20 mM): 2 | TEST COLOR ([2]; metal salt 5 mM): 1 | COLOR SCORE 5 MINUTES ([9]; pH 5, without salt 1): 1 | COLOR SCORE 5 MINUTES ([9]; pH 8, without salt 0.5): 0.5 | COLOR SCORE 5 MINUTES ([10]; pH 5, without salt 0): 0 | COLOR SCORE 5 MINUTES ([10]; pH 8, without salt 0.5): 0

CCCCCCCCCCCCCCCCCCOS(=O)(=O)[O-].[Na+] [sodium octadecyl sulfate]
COLOR ([11]; detergent (10 µL) added after the 10 minute incubation, with the chromogen): red | COLOR ([11]; detergent among first additions, present with cells and PRO.NAM during the 10 minute incubation, red = hydrolysis, yellow = none): yellow

O[C@H](CS)[C@H](O)CS (racemic) [DTT, dithiothreitol]
TEST COLOR ([5]; inhibitor 1 mM): 2 | TEST COLOR ([6]; CONCENTRATION (Mm) 1): 2 | TEST COLOR ([7]; CONCENTRATION (Mm) 1): 2

MgCl2
TEST COLOR ([1]; metal salt 20 mM): 2

CCN1C(=O)C=CC1=O [NEM, N-ethylmaleimide]
TEST COLOR ([5]; inhibitor 0.5 mM): 2 | TEST COLOR ([6]; CONCENTRATION (Mm) 2): 2 | TEST COLOR ([7]; CONCENTRATION (Mm) 2): 2

O=C(O)c1cc[c]([Hg][Cl])cc1 [PCMB, para-chloromercuribenzoate]
TEST COLOR ([5]; inhibitor 0.5 mM): 2

O=S(=O)(F)Cc1ccccc1 [PMSF, phenyl methyl sulfonyl fluoride]
TEST COLOR ([5]; inhibitor 2 mM): 2 | TEST COLOR ([6]; CONCENTRATION (Mm) 0.5): 2 | TEST COLOR ([7]; CONCENTRATION (Mm) 0.5): 1 | inhibited activity ([7]; hydrolysis of T-boc-VAL.LEU.LYS.AMC): approximately 50%

CrCl2
TEST COLOR ([1]; metal salt 20 mM): 2

zinc chloride [ZnCl2]
TEST COLOR ([1]; metal salt 20 mM): 2 | TEST COLOR ([2]; metal salt 1 mM): 1 | COLOR SCORE 5 MINUTES ([9]; pH 5, without salt 1): 1 | COLOR SCORE 5 MINUTES ([9]; pH 8, without salt 0.5): 0.5 | COLOR SCORE 5 MINUTES ([10]; pH 5, without salt 0): 0 | COLOR SCORE 5 MINUTES ([10]; pH 8, without salt 0.5): 0 | TEST COLOR [12]: 0.5

mercuric chloride [HgCl2]
TEST COLOR ([1]; metal salt 1 mM): 0

O=C(O)CN(CCOCCOCCN(CC(=O)O)CC(=O)O)CC(=O)O [EGTA, ethyleneglycol-bis-(beta-aminoethyl ether)-N,N,N',N'-tetraacetic acid]
TEST COLOR ([5]; inhibitor 5 mM): 2 | TEST COLOR ([6]; CONCENTRATION (Mm) 5): 2 | TEST COLOR ([7]; CONCENTRATION (Mm) 5): 2
